Patent publication US9428519B2, “Acylated derivative of homoharringtonine, preparation method therefor, and application thereof” (HANGZHOU BENSHENG PHARMACEUTICAL CO., LTD., priority 2011, dated 2016)
Converted amounts (≈) assume the structure as drawn.

Tests used:
[1] = test system: H9 (acute lymphoblastic leukemia, ALL); assay: MTT growth inhibition of leukemia cells, 72 h; assay type: cell-based, human
Text: (§1) Leukemia cell lines: leukemia cell lines: K562/adr (drug-resistant, chronic myeloid leukemia, CML), NB4 (acute promyelocytic leukemia, AML), Kasumi-1 (acute myeloid leukemia M2 type, AML-M2), Jurkat (acute lymphoblastic leukemia, ALL), all of which are donated by Cancer Research Institute of Zhejiang University, China; and H9 (acute lymphoblastic leukemia, ALL), which is purchased from China Center for Type Culture Collection (CCTCC).
(§2) Reagents: The standard sample of homoharringtonine (HHT) is purchased from Taihua Natural Plant Pharmaceutical Co., Ltd., Shaanxi, China, the homoharringtonine derivatives of the present invention.
(§3) Obtaining 6000 well-growing leukemia cells and inoculating them into wells of a 96-well cell culture plate. The culture medium is the 1640 cell culture medium containing 10% fetal bovine serum. After adding the homoharringtonine derivatives of different concentrations and mixing uniformly, placing the plate in a carbon dioxide cell incubator (5% CO2) at 37° C. and incubated for 72 hours. Then the viable cell concentration is determined by the MTT method. In this experiment, the cell viability in control group (not treated with any compound) is set as 100%. On such basis, the cell viability (%) after treatment and the 50% inhibiting concentration of the compound for the leukemia cell growth at 72 hours (IC50 value of 72 hours) are calculated.

[2] = test system: Jurkat (acute lymphoblastic leukemia, ALL); assay: MTT growth inhibition of leukemia cells, 72 h; assay type: cell-based, human
Text: as §1, §2, §3

[3] = test system: K562/adr (drug-resistant, chronic myeloid leukemia, CML); assay: MTT growth inhibition of leukemia cells, 72 h; assay type: cell-based, human
Text: as §1, §2, §3

[4] = test system: Kasumi-1 (acute myeloid leukemia M2 type, AML-M2); assay: MTT growth inhibition of leukemia cells, 72 h; assay type: cell-based, human
Text: as §1, §2, §3

[5] = test system: NB4 (acute promyelocytic leukemia, AML); assay: MTT growth inhibition of leukemia cells, 72 h; assay type: cell-based, human
Text: as §1, §2, §3

[6] = test system: RPMI8226 (multiple myeloma); assay: MTT growth inhibition of multiple myeloma cells, 72 h; assay type: cell-based, human
Description: Multiple myeloma and lymphoma cell lines: RPMI8226 (multiple myeloma), purchased from Fuxiang Bio-tech Co. Ltd., Shanghai, China.
as §3

A549 (human lung cancer) = assay: MTT growth inhibition of human solid tumor cells, 72 h; assay type: cell-based
Description: (§4) Human solid tumor cell lines: Hep-2 (laryngeal carcinoma), A549 (human lung cancer), CaES-17 (esophageal cancer cell), PC-3 (prostate cancer), CNE (nasopharyngeal carcinoma cell), and SK-OV-3 (ovarian cancer cell), all of which are purchased from China Center For Type Culture Collection; RKO (human colon adenocarcinoma cell), MGC 803 (human gastric cancer cell), MG63 (osteosarcoma) and U87 MG (malignant glioma cell), all of which are purchased from Fuxiang Bio-tech Co. Ltd., Shanghai, China; PANC-1 (pancreatic cancer), Huh7 (human liver cancer cell), Becap37 (human breast cancer cell), and Hela (human cervical cancer cell), all of which are donated by Cancer Research Institute of Zhejiang University, China.
(§5) Obtaining 4000 well-growing human solid tumor cells and inoculating them into wells of a 96-well cell culture plate. The culture medium is DMEM High Glucose cell culture medium containing 10% fetal bovine serum. The plate is placed in a carbon dioxide cell incubator (5% CO2) at 37° C. and incubated for 24 hours. After adding the homoharringtonine derivatives of different concentration and mixing uniformly, the plate is placed in a carbon dioxide cell incubator (5% CO2) at 37° C. and incubated for 72 hours. Then the viable cell concentration is determined by the MTT method and the cell viability (%) after drug treatment is calculated. In this experiment, the cell viability of control group (not treated with any compound) is set as 100%.

[7] = test system: Becap37 (human breast cancer cell); assay: as above; assay type: cell-based
Description: as §4, §5

[8] = test system: CNE (nasopharyngeal carcinoma cell); assay: as above; assay type: cell-based
Description: as §4, §5

[9] = test system: CaES-17 (esophageal cancer cell); assay: as above; assay type: cell-based
Description: as §4, §5

[10] = test system: Hela (human cervical cancer cell); assay: as above; assay type: cell-based
Description: as §4, §5

[11] = test system: Hep-2 (laryngeal carcinoma); assay: as above; assay type: cell-based
Description: as §4, §5

[12] = test system: Huh7 (human liver cancer cell); assay: as above; assay type: cell-based
Description: as §4, §5

MG63 (osteosarcoma) = assay: as above; assay type: cell-based
Description: as §4, §5

[13] = test system: MGC 803 (human gastric cancer cell); assay: as above; assay type: cell-based
Description: as §4, §5

[14] = test system: PANC-1 (pancreatic cancer); assay: as above; assay type: cell-based
Description: as §4, §5

PC-3 (prostate cancer) = assay: as above; assay type: cell-based
Description: as §4, §5

[15] = test system: RKO (human colon adenocarcinoma cell); assay: as above; assay type: cell-based; conditions: MTT
Description: as §4, §5

[16] = test system: SK-OV-3 (ovarian cancer cell); assay: as above; assay type: cell-based
Description: as §4, §5

[17] = test system: U87 MG (malignant glioma cell); assay: as above; assay type: cell-based
Description: as §4, §5

## COC(=O)C[C@](O)(CCCC(C)(C)OC(=O)Cc1ccccc1)C(=O)O[C@@H]1C(OC)=C[C@]23CCCN2CCc2cc4c(cc2[C@H]13)OCO4 [BS-HH-074]
[1]; Homo sapiens, MTT
  IC50: 0.004 µg/mL (≈ 0.00603 µM)
  IC90: 0.01 µg/mL (≈ 0.0151 µM)
[1]; vs HHT
  improvement of anti-H9 activity compared with homoharringtonine: more than 2 fold
[2]; Homo sapiens, Jurkat
  IC50: 0.0038 µg/mL (≈ 0.00572 µM)
  IC90: ≥ 16 µg/mL
[3]; Homo sapiens, K562/Adr, MTT
  IC50: 0.007 µg/mL (≈ 0.0105 µM)
  IC90: 14.1 µg/mL (≈ 21.2 µM)
[3]; vs HHT
  improvement of anti-K562/adr activity compared with homoharringtonine: more than 5 fold
[4]; Homo sapiens, Kasumi 1, MTT
  IC50: 0.001 µg/mL (≈ 0.00151 µM)
  IC90: 0.005 µg/mL (≈ 0.00753 µM)
[4]; vs HHT
  improvement of anti-Kasumi-1 activity compared with homoharringtonine: more than 5 fold
[5]; Homo sapiens, MTT
  IC50: 0.003 µg/mL (≈ 0.00452 µM)
  IC90: 0.007 µg/mL (≈ 0.0105 µM)
[5]; vs HHT
  improvement of anti-NB4 activity compared with homoharringtonine: more than 2 fold
[6]; Homo sapiens, RPMI-8226, MTT
  IC50: 0.003 µg/mL (≈ 0.00452 µM)
  IC90: 0.015 µg/mL (≈ 0.0226 µM)
A549 (human lung cancer); Homo sapiens, A549
  IC50: 0.007 µg/mL (≈ 0.0105 µM)
  IC90: > 16 µg/mL
[7]; Homo sapiens
  IC50: 0.003 µg/mL (≈ 0.00452 µM)
  IC90: 8.38 µg/mL (≈ 12.6 µM)
[8]; Homo sapiens, MTT
  IC50: 0.0014 µg/mL (≈ 0.00211 µM)
  IC90: > 16 µg/mL
[8]; vs HHT
  anti-CNE effect relative to homoharringtonine: > 27 fold
[9]; Homo sapiens, CaEs17
  IC50: 0.015 µg/mL (≈ 0.0226 µM)
  IC90: 16 µg/mL (≈ 24.1 µM)
[10]; Homo sapiens, HeLa, MTT
  IC50: 0.0034 µg/mL (≈ 0.00512 µM)
  IC90: 12.6 µg/mL (≈ 19 µM)
[10]; vs HHT
  anti-Hela effect relative to homoharringtonine: > 5.6 fold
[11]; Homo sapiens, HEp-2
  IC50: 0.006 µg/mL (≈ 0.00904 µM)
  IC90: > 16 µg/mL
[12]; Homo sapiens, Huh-7
  IC50: 0.003 µg/mL (≈ 0.00452 µM)
  IC90: 0.05 µg/mL (≈ 0.0753 µM)
MG63 (osteosarcoma); Homo sapiens, MG-63, MTT
  IC50: 0.006 µg/mL (≈ 0.00904 µM)
  IC90: 1.18 µg/mL (≈ 1.78 µM)
MG63 (osteosarcoma); vs HHT
  anti-MG63 effect relative to homoharringtonine: substantially superior
[13]; Homo sapiens, MGC-803
  IC50: 0.006 µg/mL (≈ 0.00904 µM)
  IC90: 0.055 µg/mL (≈ 0.0829 µM)
[14]; Homo sapiens, PANC-1, MTT
  IC50: 0.014 µg/mL (≈ 0.0211 µM)
  IC90: > 16 µg/mL
PC-3 (prostate cancer); Homo sapiens, MTT
  IC50: 0.0077 µg/mL (≈ 0.0116 µM)
  IC90: > 16 µg/mL
PC-3 (prostate cancer); vs HHT
  anti-PC-3 effect relative to homoharringtonine: more than 10 fold
[15]; Homo sapiens
  IC50: 0.002 µg/mL (≈ 0.00301 µM)
  IC90: 0.006 µg/mL (≈ 0.00904 µM)
[16]; Homo sapiens, SK-OV-3, MTT
  IC50: 0.027 µg/mL (≈ 0.0407 µM)
  IC90: > 16 µg/mL
[17]; Homo sapiens, U-87 MG
  IC50: 0.012 µg/mL (≈ 0.0181 µM)
  IC90: 0.08 µg/mL (≈ 0.121 µM)

## COC(=O)C[C@](O)(CCCC(C)(C)OC(=O)C1CCCCC1)C(=O)O[C@@H]1C(OC)=C[C@]23CCCN2CCc2cc4c(cc2[C@H]13)OCO4 [BS-HH-076]
[1]; MTT
  IC50 H9: 0.01 µg/mL (≈ 0.0152 µM)
  IC90 H9: 0.04 µg/mL (≈ 0.061 µM)
[2]
  IC50 Jurkat: 0.006 µg/mL (≈ 0.00915 µM)
  IC90 Jurkat: 6.24 µg/mL (≈ 9.52 µM)
[3]; MTT
  IC50 K562/adr: 0.02 µg/mL (≈ 0.0305 µM)
  IC90 K562/adr: 0.21 µg/mL (≈ 0.32 µM)
[4]; MTT
  IC50 Kasumi-1: 0.006 µg/mL (≈ 0.00915 µM)
  IC90 Kasumi-1: 0.023 µg/mL (≈ 0.0351 µM)
[5]; MTT
  IC50 NB4: 0.009 µg/mL (≈ 0.0137 µM)
  IC90 NB4: 0.022 µg/mL (≈ 0.0335 µM)
[6]; MTT
  IC50 RPMI8226: 0.007 µg/mL (≈ 0.0107 µM)
  IC90 RPMI8226: 0.034 µg/mL (≈ 0.0518 µM)
A549 (human lung cancer)
  IC50 A549: 0.03 µg/mL (≈ 0.0457 µM)
  IC90 A549: >16 µg/mL
[7]
  IC50 Becap37: 0.01 µg/mL (≈ 0.0152 µM)
  IC90 Becap37: 6.4 µg/mL (≈ 9.76 µM)
[8]; MTT
  IC50 CNE: 0.029 µg/mL (≈ 0.0442 µM)
  IC90 CNE: >16 µg/mL
[9]
  IC50 CaES-17: 0.039 µg/mL (≈ 0.0595 µM)
  IC90 CaES-17: 16 µg/mL (≈ 24.4 µM)
[10]; MTT
  IC50 Hela: 0.011 µg/mL (≈ 0.0168 µM)
  IC90 Hela: 10.25 µg/mL (≈ 15.6 µM)
[11]
  IC50 Hep-2: 0.012 µg/mL (≈ 0.0183 µM)
  IC90 Hep-2: >16 µg/mL
[12]
  IC50 Huh7: 0.008 µg/mL (≈ 0.0122 µM)
  IC90 Huh7: 0.096 µg/mL (≈ 0.146 µM)
MG63 (osteosarcoma); MTT
  IC50 MG 63: 0.022 µg/mL (≈ 0.0335 µM)
  IC90 MG 63: 1.72 µg/mL (≈ 2.62 µM)
[13]
  IC50 MGC 803: 0.025 µg/mL (≈ 0.0381 µM)
  IC90 MGC 803: 0.098 µg/mL (≈ 0.149 µM)
[14]; MTT
  IC50 PANC-1: 0.042 µg/mL (≈ 0.064 µM)
  IC90 PANC-1: >16 µg/mL
PC-3 (prostate cancer); MTT
  IC50 PC-3: 0.03 µg/mL (≈ 0.0457 µM)
  IC90 PC-3: >16 µg/mL
[15]
  IC50 RKO: 0.008 µg/mL (≈ 0.0122 µM)
  IC90 RKO: 0.02 µg/mL (≈ 0.0305 µM)
[16]; MTT
  IC50 SK-OV-3: 0.031 µg/mL (≈ 0.0473 µM)
  IC90 SK-OV-3: >16 µg/mL
[17]
  IC50 U87 MG: 0.009 µg/mL (≈ 0.0137 µM)
  IC90 U87 MG: 0.067 µg/mL (≈ 0.102 µM)
